Measured values from PubChem BioAssay (NCI).
Several values for one entry are separate records, joined by “and”; a condition that tells them apart may be missing. Equal values may be shown once.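 How tested: cells in 96-well plates exposed to compound for 48 hours at five concentrations. GI50 is the concentration that inhibits growth by half. At the TGI there is no net growth.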

Assays:
Test in all cases: NCI-60 cell line screen, 48 h
NCI/ADR-RES ovarian = system: NCI/ADR-RES ovarian
BT-549 breast = system: BT-549 breast
T-47D breast = system: T-47D breast
PC-3 prostate = system: PC-3 prostate
DMS 114 small cell lung = system: DMS 114 small cell lung
KM20L2 colon = system: KM20L2 colon
XF 498 CNS = system: XF 498 CNS
LXFL 529 NSCLC = system: LXFL 529 NSCLC
DMS 273 small cell lung = system: DMS 273 small cell lung
SNB-78 CNS = system: SNB-78 CNS

Compound | GI50 (NCI/ADR-RES ovarian) | TGI (NCI/ADR-RES ovarian) | GI50 (BT-549 breast) | TGI (BT-549 breast) | GI50 (T-47D breast) | TGI (T-47D breast) | GI50 (PC-3 prostate) | TGI (PC-3 prostate) | TGI (DMS 114 small cell lung) | also measured
c1ccc2c(c1)[I+]c1ccccc1-2 | > 50 µM | > 50 µM | > 50 µM | > 50 µM | > 50 µM | > 50 µM | > 50 µM | > 50 µM |  | 
COc1cc2c(cc1C)NC(=O)/C2=C\c1cc(OC)c(OC)c(OC)c1 | > 100 µM | > 100 µM | 29.6 µM | > 100 µM | > 100 µM | > 100 µM | > 100 µM | > 100 µM |  | 
C=CCn1c(C)nc2cc(Nc3nc(Nc4ccc5nc(C)n(CC=C)c5c4)c4ccccc4n3)ccc21 | 2.03 µM | 5.27 µM |  |  | 0.28 µM | 0.909 µM |  |  |  | 
CC(=O)NC1=N/C(=C/c2cc([N+](=O)[O-])ccc2O)CN1C |  | > 100 µM |  | > 100 µM |  | > 100 µM |  | > 100 µM |  | 
O=[N+]([O-])c1c(/C=N/Nc2ccccc2)oc(-c2ccc3c(c2)OCO3)c1-c1ccc2c(c1)OCO2 |  |  |  |  |  |  |  |  | > 100 µM | TGI (KM20L2 colon): 37.5 µM; TGI (XF 498 CNS): > 100 µM; TGI (LXFL 529 NSCLC): > 100 µM
O=C(Oc1ccc(O)c2c(=O)n3c(cc12)[nH]c1ccccc13)c1ccccc1 | 18.7 µM | 55 µM | 6.35 µM | 32.2 µM | 9.32 µM | 47.2 µM | 18.2 µM | 56 µM |  | 
O=c1cc(-c2ccccc2)[nH]c2cc(Cl)cc(Cl)c12 |  |  |  |  |  |  |  |  | > 100 µM | TGI (DMS 273 small cell lung): > 100 µM; TGI (LXFL 529 NSCLC): > 100 µM
CCOC(=O)CCC(=O)C1c2cccc(O)c2C(=O)c2c(O)cccc21 |  |  |  |  |  |  |  |  | 1.65 µM | TGI (DMS 273 small cell lung): 2.73 µM; TGI (XF 498 CNS): 0.551 µM
CCN(CC)CCn1c2c3ccccc3ccc2c2oc(=O)c3ccccc3c21 |  |  |  |  |  |  |  |  | > 100 µM | TGI (SNB-78 CNS): > 100 µM; TGI (KM20L2 colon): > 100 µM; TGI (XF 498 CNS): > 100 µM; TGI (LXFL 529 NSCLC): > 100 µM
N#CCCc1nc2ccc(Br)cc2c(=O)n1CCO |  |  |  |  |  |  |  |  | > 100 µM | TGI (SNB-78 CNS): > 100 µM; TGI (XF 498 CNS): > 100 µM; TGI (LXFL 529 NSCLC): > 100 µM
O=c1cc(-c2ccccc2)[nH]c2cccc(S)c12 |  | 0.236 µM |  | > 100 µM |  | > 100 µM |  | > 100 µM |  | 
c1cnc2c(c1)-n1cccc1C1(CCSCC1)NN2 |  |  |  |  |  |  |  |  |  | TGI (DMS 273 small cell lung): > 100 µM; TGI (XF 498 CNS): > 100 µM
CC1=C2C(O)C(C(C)CO)C(O)CC2(C)C(O)CC1 (stereo unspecified) |  |  |  |  |  |  |  |  | > 100 µM | TGI (SNB-78 CNS): > 100 µM; TGI (DMS 273 small cell lung): > 100 µM; TGI (KM20L2 colon): > 100 µM; TGI (LXFL 529 NSCLC): > 100 µM
O=C(Nc1ccccc1C(F)(F)F)c1cccc(NC2=C(Cl)C(=O)N(Cc3ccccc3)C2=O)c1 | 9.14 µM | 40.7 µM | 8.25 µM | 45.1 µM | 62.7 µM | > 100 µM | 8.78 µM | > 53 µM |  | 
CC(=O)CC1CCC(=O)CCC(=O)OC(CC(C)=O)CCC(=O)CCC(=O)O1 (stereo unspecified) |  | > 100 µM |  | > 100 µM |  | > 100 µM |  | > 100 µM |  | 
COc1cc(OC2OC(C)C(O)C(O)C2O)cc2oc(-c3ccc(O)cc3)c(CC=C(C)C)c(=O)c12 (stereo unspecified) | 24.3 µM | 93.3 µM | 31.2 µM | > 100 µM | 8.74 µM | 30.8 µM | 8.32 µM | 28.4 µM |  | 

Compound | GI50 (NCI/ADR-RES ovarian) | TGI (NCI/ADR-RES ovarian) | GI50 (BT-549 breast) | TGI (BT-549 breast) | GI50 (T-47D breast) | TGI (T-47D breast) | GI50 (PC-3 prostate) | TGI (PC-3 prostate) | TGI (DMS 114 small cell lung) | also measured
NC(=O)c1c[se]c(C2OC(CO)C(O)C2O)n1 (stereo unspecified) |  | > 100 µM |  | > 100 µM |  | > 100 µM |  | > 100 µM | > 100 µM | TGI (DMS 273 small cell lung): > 100 µM; TGI (XF 498 CNS): > 100 µM; TGI (LXFL 529 NSCLC): > 100 µM
C=CC(=O)N1CCCC(n2nc(-c3ccc(Oc4ccccc4)cc3)c3c(N)ncnc32)C1 (stereo unspecified) | 4.27 µM | 34.8 µM | 5.85 µM | 18.5 µM | 2.14 µM | 18.6 µM | 10 µM | 24.2 µM |  | 
COc1cc(C2c3cc4c(cc3[C@@H](Nc3ccc(C(=O)O)cc3)C3COC(=O)[C@H]23)OCO4)cc(OC)c1O (stereo partly specified) |  |  |  |  |  |  |  |  | 47.8 µM and > 17.5 µM | TGI (SNB-78 CNS): 92.7 µM and 17.4 µM; TGI (DMS 273 small cell lung): 28.5 µM and > 17.5 µM; GI50 (DMS 114 small cell lung): 13.9 µM and 5.44 µM; GI50 (KM20L2 colon): 36.8 µM and > 17.5 µM; TGI (KM20L2 colon): > 100 µM; TGI (LXFL 529 NSCLC): 39.8 µM and > 17.5 µM
Clc1nc(Oc2ccccc2)nc(-c2cn(-c3ccccc3)c3ccccc23)n1 | 17.8 µM | 34.9 µM | 17 µM | 35.6 µM | 8.58 µM | 29.5 µM | 5.03 µM | 19.3 µM |  | 
C[CH2][Sn]1([CH2]C)[O]C(=O)[O][Sn]([CH2]C)([CH2]C)[O]1 |  |  |  |  |  |  |  |  | 26.7 µM | GI50 (SNB-78 CNS): 17.1 µM; TGI (SNB-78 CNS): 37.4 µM; GI50 (DMS 273 small cell lung): 59.4 µM; TGI (DMS 273 small cell lung): > 100 µM; GI50 (DMS 114 small cell lung): 12.6 µM; GI50 (KM20L2 colon): 31.6 µM; TGI (KM20L2 colon): > 87.7 µM; GI50 (LXFL 529 NSCLC): 8.78 µM; TGI (LXFL 529 NSCLC): 21.7 µM
CCCCCCNC(=O)C1=C(C)NC(C)=C(C(=O)NCCCCCC)C1 |  | > 100 µM |  | > 100 µM |  | > 100 µM |  | > 100 µM |  | 
COc1cc(OC)c(/C=C/c2ccc3ccccc3[n+]2C)c(OC)c1 | > 66.4 µM | > 100 µM | 0.401 µM | 7.3 µM | 0.294 µM | 2.83 µM | 1.82 µM | 17.3 µM |  | 
Oc1ccc(N=Nc2ccc(Cl)cc2)cc1 |  | 51.3 µM |  | 32.6 µM |  | 67.4 µM |  | 29.3 µM |  | 
CC(C)c1ccc(Cc2cnc(NC(=O)c3cc(Br)cs3)s2)cc1 | 1.73 µM | 5.31 µM | 3.81 µM | > 100 µM | 4.27 µM | > 100 µM | 2.23 µM | > 100 µM |  | 
O=C(O)C1CCc2ccc3ccccc3c2C1c1cccc2ccccc12 (stereo unspecified) |  | 57.8 µM |  | 38.8 µM |  | > 100 µM |  | 41.2 µM |  | 
COC(=O)CCC/C=C\C[C@H]1C=CC(=O)/C1=C/C[C@@H](O)CCc1cccc(C(F)(F)F)c1 | 2.81 µM | 10.9 µM | 2.68 µM | 9.25 µM | 3.45 µM | 17 µM | 2.63 µM | 7.6 µM |  | 
S=C(Nc1ccc(-c2nc3ccccc3[nH]2)cc1)NC1CCCCC1 | 28.6 µM | 82.2 µM | 21.7 µM | 60.3 µM | 27 µM |  | 36.6 µM |  |  | 
COC1=CC23C=CC1[C@@H](c1ccccc1)C2=C(C)C(=O)N3C(=O)NC1CCCCC1 (stereo partly specified) |  |  |  |  |  |  |  |  |  | TGI (SNB-78 CNS): 70.1 µM; TGI (KM20L2 colon): 50.7 µM
CN1CCN(CCSC2Cc3cc(Cl)ccc3Sc3ccccc32)CC1 (stereo unspecified) |  |  |  |  |  |  |  |  | 11.2 µM | TGI (DMS 273 small cell lung): 4.28 µM; TGI (KM20L2 colon): 4.08 µM; TGI (XF 498 CNS): 9.57 µM; TGI (LXFL 529 NSCLC): 7.34 µM
COc1ccc2c(c1)C(=O)CC(N)C2 (stereo unspecified) |  | > 100 µM |  | > 100 µM |  | > 100 µM |  | > 100 µM |  | 
